According to patent US20230202989A1, “COMPOUNDS” (JANSSEN PHARMACEUTICA NV, priority 2020, published 2023):
Where two headings read alike, the source gives them in different places.

Tests used:
[1] = tested on: IL-1β; assay: PBMC assay: inhibition of IL-1β release after LPS stimulation (MSD); type: cell-based; settings: human PBMCs, 100 ng/ml LPS for 6 hrs, MSD, 96 well plates, read-out: IL1β IC50
Outline: (§1)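 Cryopreserved human PBMCs (7.5×10^4/well) in RPMI/10% FBS were preincubated with serially diluted compound for 30 min at 37 °C, then stimulated with 100 ng/ml LPS for 6 h. Supernatant IL-1β and TNF measured by MSD. IC50 derived for IL-1β, EC50 for TNF.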

[2] = tested on: TNF; assay: PBMC assay: TNF cytokine levels after LPS stimulation (MSD); type: cell-based; settings: human PBMCs, 100 ng/ml LPS for 6 hrs
Outline: as §1

SMILES	IC50 ([1]; Homo sapiens, PBMC, 6 h) [µM]	EC50 ([2]; Homo sapiens, PBMC, 6 h) [µM]	IC50 [1] [µM]	EC50 [2] [µM]
CC[C@@H](C)c1nn(CC(=O)Nc2ccc3nncn3c2)c(=O)c2ccc(C(F)(F)F)cc12 (single isomer, unassigned) [Final Cpd X12]	0.113	> 20	–	–
CC(C)c1nn(CC(=O)Nc2ccncn2)c(=O)c2ccc(OC(F)(F)F)cc12 [X-1038]	2.51	9.55	–	–
CC(C)c1nn(CC(=O)N[C@H]2CCc3nncn3C2)c(=O)c2ccc(C(F)(F)F)cc12 [Final Cpd X55]	0.46	> 20	–	–
CCC(C)c1nn(CC(=O)Nc2ccc3nncn3c2)c(=O)c2ccc(C(F)(F)F)cc12 (stereo not shown) [Final Cpd X24]	0.175	> 20	–	–
CC(C)c1nn(CC(=O)NC2(C)CC(O)C2)c(=O)c2ccc(C(F)(F)F)cc12 (stereo not shown) [Final Cpd X121]	2.65	> 20	–	–
CC(C)c1nn(CC(=O)Nc2ccc3nncn3n2)c(=O)c2ccc(C(C)(C)C)cc12 [X-1051]	0.106	7.02	–	–
COc1ccc2c(=O)n(CC(=O)Nc3ccncn3)nc(C(C)C)c2c1 [Final Cpd 10, 2-(4-isopropyl-6-methoxy-1-oxo-phthalazin-2-yl)-N-pyrimidin-4-yl-acetamide]	2.32	> 10	–	–
CC(C)c1nn(CC(=O)Nc2ccc3nn(C)nc3c2)c(=O)c2ccc(C(F)(F)F)cc12 [Final Cpd X169]	> 20	> 20	–	–
C[C@]1(O)C[C@@H](NC(=O)Cn2nc(C(F)F)c3cc(Br)ccc3c2=O)C1 [X-1020]	0.133	> 20	–	–
CC(C)c1nn(CC(=O)N[C@H]2C[C@@](C)(O)C2)c(=O)c2ccc(C(C)(C)C)cc12 [X-1049]	0.426	> 20	–	–
CC(C)c1nn(CC(=O)Nc2cc(C#N)c3ncnn3c2)c(=O)c2ccc(C(F)(F)F)cc12 [Final Cpd X162]	15	> 20	–	–
CC(C)c1nn(CC(=O)Nc2ccc3nncn3n2)c(=O)c2ccc(C3CCC3)cc12 [X-1012]	0.18	1.08	–	–
CC(C)c1nn(CC(=O)N[C@H]2CN(C3COC3)CC[C@H]2O)c(=O)c2ccc(C(F)(F)F)cc12 [Final Cpd X104]	1.41	> 20	–	–
CC(C)c1nn(CC(=O)Nc2ccc3c(c2)ncn3C)c(=O)c2ccc(C(F)(F)F)cc12 [Final Cpd X141]	4.71	> 20	–	–
C[C@]1(O)C[C@@H](NC(=O)Cn2nc(C(O)C(F)(F)F)c3cc(C(F)(F)F)ccc3c2=O)C1 (stereo partly shown) [Final Cpd X84]	0.911	> 20	–	–
CC(C)c1nn(CC(=O)N[C@H]2C[C@@H](C(C)(C)O)C2)c(=O)c2ccc(C(F)(F)F)cc12 [Final Cpd X108]	1.63	> 20	–	–
CC(C)c1nn(CC(=O)N[C@H]2C[C@@](C)(O)C2)c(=O)c2ccc(C(C)(C)O)cc12 [X-1043]	11	> 20	–	–
COC(C)c1ccc2c(=O)n(CC(=O)Nc3ccncn3)nc(C(C)C)c2c1 (stereo not shown) [X-1056]	1.61	14	–	–
COc1ccc2c(=O)n(CC(=O)Nc3ccncn3)nc(C(C)C)c2c1 [X-1025]	–	–	2.52	> 20
CC(C)c1nn(CC(=O)Nc2ccc3nncn3n2)c(=O)c2ccc(C3CC3)cc12 [X-1008]	0.033	2.61	–	–
CCN1CC[C@H](NC(=O)Cn2nc(C(C)C)c3cc(C(F)(F)F)ccc3c2=O)[C@@H](O)C1 (single isomer, unassigned) [Final Cpd X172]	> 20	> 20	–	–
CC(C)c1nn(CC(=O)Nc2ccc(=O)n(CCN(C)C)n2)c(=O)c2ccc(C(F)(F)F)cc12 [Final Cpd X40]	0.349	> 20	–	–
CC(C)c1nn(CC(=O)Nc2ccncn2)c(=O)c2ccc(C(C)(C)O)cc12 [X-1044]	4.38	8.29	–	–
CC(C)c1nn(CC(=O)Nc2ncnc3c2ncn3C)c(=O)c2ccc(C(F)(F)F)cc12 [Final Cpd X69]	0.735	> 20	–	–
Cc1cc(NC(=O)Cn2nc(C(C)C)c3cc(C(F)(F)F)ccc3c2=O)nn(C)c1=O [Final Cpd X51]	0.44	> 20	–	–
CC(C)c1nn(CC(=O)Nc2ccc3nncn3n2)c(=O)c2c(O)cc(C(F)(F)F)cc12 [Final Cpd X82]	0.888	12.9	–	–
COC(C)c1nn(CC(=O)Nc2ccnnc2)c(=O)c2ccc(Br)cc12 (stereo not shown) [X-1015]	2.13	> 20	–	–
CCN1CC[C@@H](NC(=O)Cn2nc(C(C)C)c3cc(C(F)(F)F)ccc3c2=O)[C@H](O)C1 (single isomer, unassigned) [Final Cpd X140]	4.61	> 20	–	–
CC(C)(F)c1nn(CC(=O)N[C@H]2C[C@@](C)(O)C2)c(=O)c2ccc(C(F)(F)F)cc12 [Final Cpd X145]	4.99	> 20	–	–
